# Laboratory results taken from US20230357242A1, “COMPOUND AS AKT KINASE INHIBITOR” (CHIA TAI TIANQING PHARMACEUTICAL GROUP CO., LTD., priority 2020, published 2023).
# Columns and labels:
# [1] = Pharmacokinetic evaluation in mice; type: in vivo; set-up: Cl: unit not given here; conditions: ICR mice; for AUC(0-inf) / AUC(0-t) / Cmax / Tmax / bioavailability / MRT last / Vd: mouse, plasma; for bioavailability: IG 10 mg/kg vs IV 1 mg/kg, read-out: Absolute bioavailability F %; for MRT last: read-out: MRT(0-t)
# Protocol: ICR mice, weight 18-22 g, after adaption for 3-5 days, were randomly divided into 4 groups of 9 mice, each group was intragastrically (IG) administered with compound 28 or compound 30 at a dose of 10 mg/kg, or intravenously (IV) administered with compound 28 or compound 30 at a dose of 1 mg/kg.
# The animals to be tested (ICR mice) were fasted for 12 h before administration and food was provided 4 h after administration, and water was freely drunk before and after the experiment and during the experiment.
# (§1) After intragastric administration, about 0.1 mL of blood was taken from eye sockets at 15 min, 30 min, 1 h, 2 h, 3 h, 4 h, 6 h, 8 h, 10 h, and 24 h; after intravenous injection, about 0.1 mL of blood was taken from eye sockets at 5 min, 10 min, 30 min, 1 h, 2 h, 4 h, 6 h, 8 h, 10 h, and 24 h; each mouse was collected at 3-4 time points and 3 mice were collected at each time point, whole blood was collected, placed in centrifuge tubes containing EDTA-K2, and stored at 4° C. within 1 h, and the plasma was separated off by centrifugation at 4° C. and 4000 rpm for 10 min. All the plasma samples were collected and immediately stored at −20° C. for testing. 30 μL of the plasma sample to be tested and a standard curve sample were pipetted and added with 300 μL of acetonitrile solution containing an internal standard (20 ng/mL diazepam), shaken and mixed well for 5 min, and centrifuged at 13,000 rpm for 10 min. 80 μL of supernatant was taken and diluted with 80 μL of ultrapure water. After being mixed well, 2 μL of the resulting sample was taken for liquid chromatography-mass determination, and a chromatogram was recorded.
# Oral and intravenous exposure of the compound of the present application was evaluated by in vivo pharmacokinetic experiment in mice.
# LNcap cells = experiment: Inhibitory effect on proliferation of LNcap cells (CCK-8, 72 h); type: cell-based; conditions: Homo sapiens, LNcap cells, CCK-8, read-out: LNcap cells IC50
# Protocol: A dish of LNcap cells (human prostate cancer cells with PTEN deficiency) growing at log phase and in good conditions were taken and digested for 3 min by using 1 mL of pancreatin, then the mixture was added with 4 mL of complete culture medium to terminate digestion, and the cells were added to a centrifuge tube. 20 μL of cells were taken and counted, the required number of cells (mL) was pipetted and centrifuged at 1200 rpm for 5 min, the supernatant was discarded, and an appropriate amount of plating medium (RPMI medium+5% FBS+1% sodium pyruvate+1% glutamine) was added to adjust the cell density to 3×10^4 cells/mL. The cells were seeded on a 96-well plate at 100 μL/well using a multi-channel pipette and cultured in a cell incubator at 37° C., 5% CO2 and saturated humidity. After incubation overnight, compounds were loaded using a nanoliter pipettor, 2 duplicate wells were set for each concentration, and cells without compound were used as negative controls. After 72 h, CCK-8 was added at 10 μL/well for incubation for 4 h, then absorbance was measured at 450 nm with an Envision plate reader, and inhibition rate was calculated. Inhibition rate (%)=(mean value of negative control group−mean value of experimental group)/(mean value of negative control group−mean value of blank group)×100%. A dose-response curve was fitted by four-parameter analysis, with the logarithm of compound concentration as abscissa and inhibition rate as ordinate, so that IC50 was calculated.
# [2] = Pharmacokinetic evaluation in rats; type: in vivo; set-up: Cl: unit not given here; conditions: SD rats; for bioavailability / AUC(0-inf) / AUC(0-t) / Cmax / Tmax / MRT last / Vd: rat, plasma; for bioavailability: oral, IG 10 mg/kg vs IV 1 mg/kg, read-out: Absolute bioavailability F %; for MRT last: read-out: MRT(0-t)
# Protocol: SD rats, weight 180-220 g, after adaption for 7 days, were randomly divided into 4 groups of 3 […], each group was intragastrically (IG) administered with compound 28 or compound 30 at a dose of 10 mg/kg, or intravenously (IV) administered with compound 28 or compound 30 at a dose of 1 mg/kg. The animals to be tested (SD rats) were fasted for 12 h before administration and food was provided 4 h after administration, and water was freely drunk before and after the experiment and during the experiment.
# as §1, with “h;” for “h; each mouse was collected at 3-4 time points and”, “rats” for “mice”
# Oral and intravenous exposure of the compound of the present application was evaluated by in vivo pharmacokinetic experiment in rats.
t1/2z ([1]; IG 10 mg/kg) [h],Cl ([1]; IV 1 mg/kg),t1/2z ([1]; IV 1 mg/kg) [h],"AUC(0-inf) ([1]; po, IG 10 mg/kg) [ng·h/mL]","AUC(0-t) ([1]; po, IG 10 mg/kg) [ng·h/mL]","Cmax ([1]; po, IG 10 mg/kg) [ng/mL]","Tmax ([1]; po, IG 10 mg/kg) [h]",bioavailability ([1]; po) [%],"MRT last ([1]; po, IG 10 mg/kg) [h]",AUC(0-inf) ([1]; IV 1 mg/kg) [ng·h/mL],AUC(0-t) ([1]; IV 1 mg/kg) [ng·h/mL],Vd ([1]; IV 1 mg/kg) [L/kg],MRT last ([1]; IV 1 mg/kg) [h],IC50 (LNcap cells) [nM],t1/2z ([2]; IG 10 mg/kg) [h],Cl ([2]; IV 1 mg/kg),t1/2z ([2]; IV 1 mg/kg) [h],bioavailability [2] [%],"AUC(0-inf) ([2]; po, IG 10 mg/kg) [ng·h/mL]","AUC(0-t) ([2]; po, IG 10 mg/kg) [ng·h/mL]",SMILES,further results
5.31,3.95,1.74,896,871,140,2,35.4,5.28,253,246,9.92,1.49,3,3.93 ± 1.46,5.75 ± 0.146,5.9 ± 2.11,25,372 ± 197,362 ± 195,CC(=O)N1CC2(C1)CN(c1cccc(-c3ccc4nc(-c5cccnc5N)n(-c5ccc(C6(N)CCC6)cc5)c4n3)c1F)C2 [Compound 28],"Cmax ([2]; po, IG 10 mg/kg): 32.6 ± 12.4 ng/mL; Tmax ([2]; po, IG 10 mg/kg): 4.67 ± 1.15 h; MRT last ([2]; po, IG 10 mg/kg): 7.38 ± 0.43 h; AUC(0-inf) ([2]; IV 1 mg/kg): 174 ± 4.37 ng·h/mL; AUC(0-t) ([2]; IV 1 mg/kg): 145 ± 11.1 ng·h/mL; Vd ([2]; IV 1 mg/kg): 48.8 ± 16.8 L/kg; MRT last ([2]; IV 1 mg/kg): 2.12 ± 0.099 h"
6.58,2.08,1.48,2880,2770,542,2,58.2,5.01,482,476,4.43,1.04,4.8,5.43 ± 1.82,7.23 ± 0.496,7.73 ± 0.440,35.5,383 ± 106,358 ± 109,Nc1ncccc1-c1nc2ccc(-c3cccc(N4CCC(N5CCCC5=O)CC4)c3F)nc2n1-c1ccc(C2(N)CCC2)cc1 [Compound 30],"Cmax ([2]; po, IG 10 mg/kg): 31.2 ± 8.8 ng/mL; Tmax ([2]; po, IG 10 mg/kg): 4.67 ± 1.15 h; MRT last ([2]; po, IG 10 mg/kg): 8.15 ± 0.73 h; AUC(0-inf) ([2]; IV 1 mg/kg): 139 ± 9.21 ng·h/mL; AUC(0-t) ([2]; IV 1 mg/kg): 127 ± 9.69 ng·h/mL; Vd ([2]; IV 1 mg/kg): 80.8 ± 8.9 L/kg; MRT last ([2]; IV 1 mg/kg): 5.57 ± 0.053 h"
